“Also recorded” adds a separate entry of the source. Where two headings read alike, the source gives them in different places.
Target: mu-opioid receptor (MOR) (Homo sapiens (Human), UniProt P35372)
Experiment: cell-based

Chain of mu-opioid receptor (MOR) (P35372 whole entry): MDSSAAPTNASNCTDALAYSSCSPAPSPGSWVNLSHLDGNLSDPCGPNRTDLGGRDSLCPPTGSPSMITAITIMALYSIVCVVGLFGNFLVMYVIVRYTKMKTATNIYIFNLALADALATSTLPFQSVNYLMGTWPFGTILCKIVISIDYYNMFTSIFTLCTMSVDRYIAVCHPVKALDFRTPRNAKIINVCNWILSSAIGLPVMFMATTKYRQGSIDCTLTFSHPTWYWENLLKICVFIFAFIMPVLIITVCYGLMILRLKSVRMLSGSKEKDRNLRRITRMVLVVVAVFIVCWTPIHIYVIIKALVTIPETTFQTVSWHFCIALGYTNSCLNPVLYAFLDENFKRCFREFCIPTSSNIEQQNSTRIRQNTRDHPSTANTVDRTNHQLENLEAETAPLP

Q: Which EC50 (co-administrated with naloxone (20 nM), read-out: EC50 of calcium release) does the source give for `Cc1cc(C(=O)O)ccc1N1C(=O)CSC1c1ccc(F)cc1` (centres unmarked) here?
A: 1.3 µM

Q: And the “activity combined with peptide MOR antagonist CTOP” value (combination with CTOP)?
A: no activity was observed

Q: And the AUC (combined with Cyprodime hydrochloride 500 nM)?
A: 7893

Q: What about the EC50 (combined with Cyprodime hydrochloride 500 nM, read-out: EC50) of the same compound?
A: 5.12 ± 2.52 µM

Q: And the AUC (combined with Nalmefene 20 nM)?
A: 8506

Q: What about the AUC (combined with Naloxonazine dihydrochloride 20 nM) of the same compound?
A: 11819.33

Q: And the EC50 (combined with Naloxonazine dihydrochloride 20 nM, read-out: EC50)?
A: 0.642 µM

Q: What about the AUC (combined with Naltrexone 20 nM) of the same compound?
A: 12980.33

Q: What about the EC50 (combined with Naltrexone 20 nM, read-out: EC50) of the same compound?
A: 0.63 ± 0.217 µM

Q: And the AUC (combined with Samidorphan 10 nM)?
A: 13179

Q: And the EC50 (combined with Samidorphan 10 nM, read-out: EC50)?
A: 5.53 µM

Q: What about the AUC (combined with Samidorphan 20 nM) of the same compound?
A: 14094

Q: What about the EC50 (combined with Samidorphan 20 nM, read-out: EC50) of the same compound?
A: 5.27 µM

Q: What about the “FLIPR Ca^2+ AUC” value (combined with a MOR antagonist) of the same compound?
A: 16361

Q: And the EC50 (combined with a MOR antagonist, read-out: FLIPR Ca^2+ EC50)?
A: 1.1 µM

Q: And the “AAM effect with naltrexone” value (combined with naltrexone, compared with naloxone)?
A: worked as an AAM of naltrexone, with similar potency but a higher magnitude of efficacy

Q: What about the “calcium release in the presence of an opioid antagonist” value (combined with one of the listed opioid antagonists) of the same compound?
A: induced significant calcium release

Q: What about the AUC (combined with β-Funaltrexamine hydrochloride 20 nM) of the same compound?
A: 8553.5

Q: And the EC50 (combined with β-Funaltrexamine hydrochloride 20 nM, read-out: EC50)?
A: 0.346 ± 0.209 µM

Q: And the “response on its own (calcium release)” value (compound alone, no antagonist)?
A: did not show responses on their own; also recorded: did not elicit any response on its own

Q: And the “effect on Emax and potency of morphine (PAM/NAM test)” value (morphine CRC with compound at 30, 10, 3.3 μM)?
A: neither Emax nor potency of morphine was significantly altered

Q: What about the “calcium release in the presence of naloxone” value (naloxone (25 nM)) of the same compound?
A: induced a significant calcium release

Q: What about the “effect on concentration-response curve of naloxone (Emax, potency)” value (naloxone CRC with compound at different concentrations) of the same compound?
A: both Emax and potency of naloxone were altered

Reference: US10544113B2 (priority 2016, dated 2020)
